Data on 16 compounds can be found in PMC12005767 (Advanced Science, 2025).

In assay [1] the target is T1, HDAC1 (Homo sapiens, UniProt Q13547).
T1 construct: purchased BPS Bioscience
Also on record: method as in PMID 27754681. The settings on record: prior research; cited from earlier work.

The target in a further assay is T2, HDAC11 (Homo sapiens, UniProt Q96DB2).
T2 construct: The HDAC11 enzyme was a full‐length human recombinant HDAC enzyme sourced from BPS Bioscience; purchased BPS Bioscience
T2 sequence (Q96DB2 1-347): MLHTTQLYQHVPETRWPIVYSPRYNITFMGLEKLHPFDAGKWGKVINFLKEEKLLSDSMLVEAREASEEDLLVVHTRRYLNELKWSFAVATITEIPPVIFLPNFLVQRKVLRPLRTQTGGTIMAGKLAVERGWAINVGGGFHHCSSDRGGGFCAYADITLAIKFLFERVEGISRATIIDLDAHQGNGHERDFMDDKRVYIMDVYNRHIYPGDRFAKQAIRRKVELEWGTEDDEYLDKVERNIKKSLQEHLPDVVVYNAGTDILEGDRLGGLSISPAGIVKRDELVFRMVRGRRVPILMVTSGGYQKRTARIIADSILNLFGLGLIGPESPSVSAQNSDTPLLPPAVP
The experiment in a line: HDAC11 inhibition fluorescence assay (ETDKmyr substrate). The assay is classed as biochemical. The settings on record: for IC50: mean ± SEM. As for the experimental part: The HDAC11 enzyme was a full‐length human recombinant HDAC enzyme sourced from BPS Bioscience. In detail, a total of 20 µL of recombinant HDAC11 enzyme solution (working concentration = 1 × 10^−9 M) was combined with varying concentrations of the test compound (20 µL) in a 96‐well black plate. The mixture was then incubated at a temperature of 30 °C for a duration of 1 h. Subsequently, 10 µL of the specific fluorogenic substrate (ETDKacyl‐Kmyr) was added. Following 2 h incubation at 30 °C, the catalytic reaction was ceased by adding 10 µL of a developer solution consisting of 2 mg mL^−1 trypsin and 5 × 10^−6 M trichostatin A (TSA). After a standing period of 6 h, the fluorescence intensity was assessed using a microplate reader at excitation and emission wavelengths of 360 and 460 nm, respectively. The inhibition ratios were calculated based on the fluorescence intensity readings of the test wells compared to the control wells. GraphPad Prism 8.0 software was employed to generate IC 50 curves and determine the corresponding IC 50 values utilizing the “log(inhibitor) versus normalized response‐variable slope” function.

Assay [2] has as its target T1, HDAC1. Kind of assay: In vitro HDACs inhibition fluorescence assay, HDAC1. The assay is classed as biochemical. The settings on record: mean ± SEM. How it is done: (§1) In Vitro HDACs Inhibition Fluorescence Assay: For the inhibitory activity against HDAC1‐10, enzymes were also procured from BPS Bioscience. The in vitro […] inhibition assays were conducted following the established method described previously.^[ [45] ^] The working concentrations of HDAC1‐10 were 4 × 10^−9 M. The fluorogenic substrate of HDAC1, 2, 3, and 6 was Boc‐Lys (acetyl)‐AMC, and the substrate of HDAC4, 5, 7, 8, 9, and 10 was Boc‐Lys (trifluoroacetyl) AMC. The developer solution consists of 30 mg mL^−1 trypsin and 5 × 10^−6 M TSA. A standing period of 30 min was sufficient before assessing the fluorescence intensity.

For another assay, the target named is T3, HDAC3 (Homo sapiens, UniProt O15379).
T3 construct: purchased BPS Bioscience
T3 sequence (O15379 whole entry): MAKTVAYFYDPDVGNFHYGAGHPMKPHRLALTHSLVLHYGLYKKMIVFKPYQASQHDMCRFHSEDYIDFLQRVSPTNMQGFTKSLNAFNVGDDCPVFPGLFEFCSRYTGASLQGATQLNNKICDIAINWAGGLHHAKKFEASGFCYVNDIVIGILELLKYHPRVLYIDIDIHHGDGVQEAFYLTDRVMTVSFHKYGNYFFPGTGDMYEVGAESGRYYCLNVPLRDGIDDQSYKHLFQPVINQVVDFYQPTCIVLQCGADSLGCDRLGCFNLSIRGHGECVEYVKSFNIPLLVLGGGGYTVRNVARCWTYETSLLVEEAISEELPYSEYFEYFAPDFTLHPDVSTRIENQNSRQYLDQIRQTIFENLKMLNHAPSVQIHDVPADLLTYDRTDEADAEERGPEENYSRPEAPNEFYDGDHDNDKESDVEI
T3 sequence (Q9Y618 395-489 partner limits assumed): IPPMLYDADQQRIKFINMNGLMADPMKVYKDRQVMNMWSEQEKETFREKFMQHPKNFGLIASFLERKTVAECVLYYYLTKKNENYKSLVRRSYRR
The experiment in a line: In vitro HDACs inhibition fluorescence assay, HDAC3. The assay is classed as biochemical. The note with it: mean ± SEM. How it is done: as §1

T1 sequence (Q13547 whole entry): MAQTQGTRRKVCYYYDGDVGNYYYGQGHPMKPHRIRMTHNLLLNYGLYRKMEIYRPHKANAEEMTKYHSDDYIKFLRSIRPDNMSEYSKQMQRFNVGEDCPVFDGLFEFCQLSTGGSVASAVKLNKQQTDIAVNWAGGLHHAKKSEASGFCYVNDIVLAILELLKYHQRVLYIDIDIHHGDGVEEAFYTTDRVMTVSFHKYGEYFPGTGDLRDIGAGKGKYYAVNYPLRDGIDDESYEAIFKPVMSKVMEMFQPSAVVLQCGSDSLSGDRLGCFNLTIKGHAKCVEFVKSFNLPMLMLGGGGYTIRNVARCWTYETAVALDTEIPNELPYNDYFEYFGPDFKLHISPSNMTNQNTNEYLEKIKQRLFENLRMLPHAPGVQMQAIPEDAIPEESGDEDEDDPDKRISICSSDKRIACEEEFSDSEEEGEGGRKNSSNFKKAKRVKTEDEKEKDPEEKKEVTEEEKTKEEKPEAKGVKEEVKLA

As a reminder, the IC50 is the concentration that gives 50% inhibition. Read a high IC50 as a need for much substance. On to `CCCCNNC(=O)c1ccc(CNC(=O)c2ccccc2)cc1` [A1], for which the “IC50 for HDAC1 (in words)” value on HDAC1 [1] is “low nanomolar”. Also, the “inhibitory activity against HDAC11 (in words)” value on HDAC11 is reported as “moderate inhibitory activity”. Further, the 50% inhibitory concentration (IC50) against HDAC11 came to 3250 ± 241 nM; on HDAC1 [2], 20.5 ± 1.4 nM.

For `CCCCCNNC(=O)c1ccc(CNC(=O)c2ccccc2)cc1` [A2], the “IC50 for HDAC1 (in words)” value on HDAC1 [1] is “low nanomolar”. Further, at HDAC11, the “inhibitory activity against HDAC11 (in words)” value is recorded as “moderate inhibitory activity” and the IC50 is 6740 ± 324 nM. This compound also gave an IC50 on HDAC1 [2] of 45.6 ± 2.36 nM.

As for `CCCCCCNNC(=O)c1ccc(CNC(=O)c2ccccc2)cc1` [A3], the IC50 is above 10000 nM on HDAC11, 6.79 ± 0.19 nM against HDAC3 and 34.5 ± 3.15 nM on HDAC1 [2].

Take `CCCCCCCNNC(=O)c1ccc(CNC(=O)c2ccccc2)cc1` [A4]: the figures for the IC50 against HDAC11, at HDAC3 and on HDAC1 [2] were 3310 ± 157 nM, 6360 ± 324 nM and 415 ± 153 nM, respectively.

Turning to `CCCCCCCCNNC(=O)c1ccc(CNC(=O)c2ccccc2)cc1` [A5], the IC50 against HDAC11 came out at 942 ± 94.1 nM; on HDAC3 it was 501 ± 2.4 nM; against HDAC1 [2], 2050 ± 27.5 nM.

`CCCCCCCCCNNC(=O)c1ccc(CNC(=O)c2ccccc2)cc1` [A6]: the IC50 at HDAC11 was 504 ± 45.5 nM; at HDAC3 it was 2050 ± 39.5 nM; against HDAC1 [2] it was above 10000 nM.

Consider `CCCCCCCCCCNNC(=O)c1ccc(CNC(=O)c2ccccc2)cc1` [A7], for which the IC50 against HDAC11 was 416 ± 41.1 nM; at HDAC3 it was above 10000 nM; at HDAC1 [2], above 10000 nM.

As for `CCCCCCCCCCCCNNC(=O)c1ccc(CNC(=O)c2ccccc2)cc1` [A9], the figures for the IC50 against HDAC11, against HDAC3 and against HDAC1 [2] were 132 ± 4.29 nM, above 10000 nM and above 10000 nM, respectively.

On HDAC11, `O=C(NCc1ccc(C(=O)NNCCCCCCCCCCO)cc1)c1ccccc1` [B1] registered a half-inhibitory concentration (IC50) of 664 ± 64.9 nM.

In the case of `COCCCCCCCCCNNC(=O)c1ccc(CNC(=O)c2ccccc2)cc1` [B2], at HDAC11, the IC50 came out at 1550 ± 116 nM.

`CCOCCCCCCCCNNC(=O)c1ccc(CNC(=O)c2ccccc2)cc1` [B3] had an IC50 against HDAC11 of 494 ± 41.9 nM.

`CCCOCCCCCCCNNC(=O)c1ccc(CNC(=O)c2ccccc2)cc1` [B4] displayed a 50% inhibitory concentration (IC50) against HDAC11 of 257 ± 12.1 nM.

`CCCCOCCCCCCNNC(=O)c1ccc(CNC(=O)c2ccccc2)cc1` [B5]: the half-maximal inhibitory concentration (IC50) against HDAC11 is 357 ± 16.5 nM.

Regarding `COCCOCCCCCCNNC(=O)c1ccc(CNC(=O)c2ccccc2)cc1` [B7], the concentration for half-maximal inhibition (IC50) on HDAC11 came out at 2440 ± 223 nM.

Take `CCOCCOCCCCCNNC(=O)c1ccc(CNC(=O)c2ccccc2)cc1` [B8]: on HDAC11, half-maximal inhibition (IC50) required 801 ± 49.5 nM.

Turning to `CCCCCCCCCCCCCCCCNNC(=O)c1cccs1` [SIS17, reference compound], the results for the concentration for half-maximal inhibition (IC50) against HDAC11, against HDAC3 and against HDAC1 [2] were 243 ± 12.3 nM, above 10000 nM and above 10000 nM, respectively.
